Measurements from the supplement of paper PMC10307832.

Assays:
Experiment in all cases: relative viability (nuclei count vs DMSO), 5 days (fraction); higher = more cells survive
H3255 = tested on: H3255
How it was run: (§1)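 After 5 days of treatment, lung cancer cells in 1536-well plates were fixed and stained in a single step (final 0.05% Triton X-100, 1% formaldehyde, 1 ug/ml Hoechst) and their nuclei counted on 4× images. Treatment had been applied by pin tool the day after seeding as one drug alone or as a fixed anchor-drug dose with five library-drug doses (not always all listed) in √10 steps. Relative viability is the nuclei count of treated wells divided by that of vehicle wells, and values are medians of duplicate plates.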

NCI-H1792 = tested on: NCI-H1792
How it was run: as §1

SW 900 = tested on: SW 900
How it was run: as §1

NCI-H520 = tested on: NCI-H520
How it was run: as §1

NCI-H522 = tested on: NCI-H522
How it was run: as §1

NCI-H1793 = tested on: NCI-H1793
How it was run: as §1

LXF-289 = tested on: LXF-289
How it was run: as §1

NCI-H1944 = tested on: NCI-H1944
How it was run: as §1

NCI-H1975 = tested on: NCI-H1975
How it was run: as §1

NCI-H2023 = tested on: NCI-H2023
How it was run: as §1

HCC-827 = tested on: HCC-827
How it was run: as §1

NCI-H2170 = tested on: NCI-H2170
How it was run: as §1

NCI-H1993 = tested on: NCI-H1993
How it was run: as §1

NCI-H2087 = tested on: NCI-H2087
How it was run: as §1

A-427 = tested on: A-427
How it was run: as §1

LCLC-103H = tested on: LCLC-103H
How it was run: as §1

COR-L 105 = tested on: COR-L 105
How it was run: as §1

HCC-44 = tested on: HCC-44
How it was run: as §1

LOU-NH91 = tested on: LOU-NH91
How it was run: as §1

NCI-H358 = tested on: NCI-H358
How it was run: as §1

NCI-H1915 = tested on: NCI-H1915
How it was run: as §1

SK-MES-1 = tested on: SK-MES-1
How it was run: as §1

SW 1573 = tested on: SW 1573
How it was run: as §1

`CCNC(=O)c1noc(-c2cc(C(C)C)c(O)cc2O)c1-c1ccc(CN2CCOCC2)cc1` [Luminespib] + Nc1ncn([C@H]2C[C@H](O)[C@@H](CO)O2)c(=O)n1 [Decitabine] (partner 2 µM) showed a relative viability (H3255; first compound 0.002 µM) of 0.639, a relative viability (H3255; first compound 0.02 µM) of 0.446 and a relative viability (H3255; first compound 0.06325 µM) of 0.425. The relative viability (H3255; first compound 0.2 µM) was 0.222, the relative viability (NCI-H1792; first compound 0.002 µM) was 0.521 and the relative viability (NCI-H1792; first compound 0.006325 µM) was 0.458. For the same molecule, the relative viability (NCI-H1792; first compound 0.02 µM) was 0.429, the relative viability (NCI-H1792; first compound 0.06325 µM) was 0.078 and the relative viability (NCI-H1792; first compound 0.2 µM) was 0.0722. The relative viability (SW 900; first compound 0.002 µM) was 0.478, the relative viability (SW 900; first compound 0.006325 µM) was 0.472 and the relative viability (SW 900; first compound 0.02 µM) was 0.417. It also gave a relative viability (SW 900; first compound 0.06325 µM) of 0.156, a relative viability (SW 900; first compound 0.2 µM) of 0.159 and a relative viability (NCI-H520; first compound 0.002 µM) of 0.533. For the same molecule, the relative viability (NCI-H520; first compound 0.006325 µM) was 0.506, the relative viability (NCI-H520; first compound 0.02 µM) was 0.317 and the relative viability (NCI-H520; first compound 0.06325 µM) was 0.167. It also gave a relative viability (NCI-H520; first compound 0.2 µM) of 0.152, a relative viability (NCI-H522; first compound 0.002 µM) of 0.626 and a relative viability (NCI-H522; first compound 0.006325 µM) of 0.631. For the same molecule, the relative viability (NCI-H522; first compound 0.02 µM) was 0.593, the relative viability (NCI-H522; first compound 0.06325 µM) was 0.6 and the relative viability (NCI-H522; first compound 0.2 µM) was 0.451. The relative viability (NCI-H1793; first compound 0.002 µM) was 0.499, the relative viability (NCI-H1793; first compound 0.006325 µM) was 0.457 and the relative viability (NCI-H1793; first compound 0.02 µM) was 0.369. For the same molecule, the relative viability (NCI-H1793; first compound 0.06325 µM) was 0.151, the relative viability (NCI-H1793; first compound 0.2 µM) was 0.185 and the relative viability (LXF-289; first compound 0.002 µM) was 0.397. It also gave a relative viability (LXF-289; first compound 0.006325 µM) of 0.354, a relative viability (LXF-289; first compound 0.02 µM) of 0.424 and a relative viability (LXF-289; first compound 0.06325 µM) of 0.392. For the same molecule, the relative viability (LXF-289; first compound 0.2 µM) was 0.367, the relative viability (NCI-H1944; first compound 0.002 µM) was 0.493 and the relative viability (NCI-H1944; first compound 0.006325 µM) was 0.454. The relative viability (NCI-H1944; first compound 0.02 µM) was 0.405, the relative viability (NCI-H1944; first compound 0.06325 µM) was 0.405 and the relative viability (NCI-H1944; first compound 0.2 µM) was 0.415. For the same molecule, the relative viability (NCI-H1975; first compound 0.002 µM) was 0.393, the relative viability (NCI-H1975; first compound 0.006325 µM) was 0.346 and the relative viability (NCI-H1975; first compound 0.02 µM) was 0.355. The relative viability (NCI-H1975; first compound 0.06325 µM) was 0.127, the relative viability (NCI-H1975; first compound 0.2 µM) was 0.144 and the relative viability (NCI-H2023; first compound 0.002 µM) was 0.242. It also gave a relative viability (NCI-H2023; first compound 0.006325 µM) of 0.218, a relative viability (NCI-H2023; first compound 0.02 µM) of 0.136 and a relative viability (NCI-H2023; first compound 0.06325 µM) of 0.0602. The relative viability (NCI-H2023; first compound 0.2 µM) was 0.0539, the relative viability (HCC-827; first compound 0.002 µM) was 0.36 and the relative viability (HCC-827; first compound 0.006325 µM) was 0.333. The relative viability (HCC-827; first compound 0.02 µM) was 0.285, the relative viability (HCC-827; first compound 0.06325 µM) was 0.166 and the relative viability (HCC-827; first compound 0.2 µM) was 0.147. For the same molecule, the relative viability (NCI-H2170; first compound 0.002 µM) was 0.468, the relative viability (NCI-H2170; first compound 0.006325 µM) was 0.456 and the relative viability (NCI-H2170; first compound 0.06325 µM) was 0.47. The relative viability (NCI-H2170; first compound 0.2 µM) was 0.507, the relative viability (NCI-H1993; first compound 0.002 µM) was 0.596 and the relative viability (NCI-H1993; first compound 0.006325 µM) was 0.579. The relative viability (NCI-H1993; first compound 0.02 µM) was 0.48, the relative viability (NCI-H1993; first compound 0.06325 µM) was 0.573 and the relative viability (NCI-H1993; first compound 0.2 µM) was 0.371. For the same molecule, the relative viability (NCI-H2087; first compound 0.002 µM) was 0.25, the relative viability (NCI-H2087; first compound 0.006325 µM) was 0.235 and the relative viability (NCI-H2087; first compound 0.02 µM) was 0.189. For the same molecule, the relative viability (NCI-H2087; first compound 0.06325 µM) was 0.145, the relative viability (NCI-H2087; first compound 0.2 µM) was 0.101 and the relative viability (A-427; first compound 0.002 µM) was 0.611. The relative viability (A-427; first compound 0.006325 µM) was 0.514, the relative viability (A-427; first compound 0.02 µM) was 0.446 and the relative viability (A-427; first compound 0.06325 µM) was 0.599. For the same molecule, the relative viability (A-427; first compound 0.2 µM) was 0.269, the relative viability (LCLC-103H; first compound 0.002 µM) was 0.732 and the relative viability (LCLC-103H; first compound 0.006325 µM) was 0.702. It also gave a relative viability (LCLC-103H; first compound 0.02 µM) of 0.721, a relative viability (LCLC-103H; first compound 0.06325 µM) of 0.74 and a relative viability (LCLC-103H; first compound 0.2 µM) of 0.691. It also gave a relative viability (COR-L 105; first compound 0.002 µM) of 0.674, a relative viability (COR-L 105; first compound 0.006325 µM) of 0.654 and a relative viability (COR-L 105; first compound 0.02 µM) of 0.567. The relative viability (COR-L 105; first compound 0.06325 µM) was 0.234, the relative viability (COR-L 105; first compound 0.2 µM) was 0.334 and the relative viability (HCC-44; first compound 0.002 µM) was 0.969. It also gave a relative viability (HCC-44; first compound 0.006325 µM) of 0.953, a relative viability (HCC-44; first compound 0.02 µM) of 0.959 and a relative viability (HCC-44; first compound 0.06325 µM) of 0.954. It also gave a relative viability (HCC-44; first compound 0.2 µM) of 0.863, a relative viability (LOU-NH91; first compound 0.002 µM) of 0.8 and a relative viability (LOU-NH91; first compound 0.006325 µM) of 0.844. For the same molecule, the relative viability (LOU-NH91; first compound 0.02 µM) was 0.686, the relative viability (LOU-NH91; first compound 0.06325 µM) was 0.382 and the relative viability (LOU-NH91; first compound 0.2 µM) was 0.436. For the same molecule, the relative viability (NCI-H358; first compound 0.002 µM) was 0.217, the relative viability (NCI-H358; first compound 0.006325 µM) was 0.217 and the relative viability (NCI-H358; first compound 0.02 µM) was 0.178. For the same molecule, the relative viability (NCI-H358; first compound 0.06325 µM) was 0.0688, the relative viability (NCI-H358; first compound 0.2 µM) was 0.0584 and the relative viability (NCI-H1915; first compound 0.002 µM) was 0.258. For the same molecule, the relative viability (NCI-H1915; first compound 0.006325 µM) was 0.278, the relative viability (NCI-H1915; first compound 0.02 µM) was 0.254 and the relative viability (NCI-H1915; first compound 0.06325 µM) was 0.24. For the same molecule, the relative viability (NCI-H1915; first compound 0.2 µM) was 0.21, the relative viability (SK-MES-1; first compound 0.002 µM) was 0.392 and the relative viability (SK-MES-1; first compound 0.006325 µM) was 0.385. For the same molecule, the relative viability (SK-MES-1; first compound 0.02 µM) was 0.213, the relative viability (SK-MES-1; first compound 0.06325 µM) was 0.146 and the relative viability (SK-MES-1; first compound 0.2 µM) was 0.147. It also gave a relative viability (SW 1573; first compound 0.002 µM) of 0.569, a relative viability (SW 1573; first compound 0.006325 µM) of 0.456 and a relative viability (SW 1573; first compound 0.02 µM) of 0.159. It also gave a relative viability (SW 1573; first compound 0.06325 µM) of 0.072 and a relative viability (SW 1573; first compound 0.2 µM) of 0.0827.
